Reference: PubChem BioAssay AID489023 (Sanford-Burnham Center for Chemical Genomics, 2010)
Active and inactive are the calls of the source. How the calls were made is not given here.

Each compound was assayed on 697B cells, BCR-induced NF-kB luciferase reporter luminescence (assay: inhibitors of BCR-induced NF-kB activation, dose response, 697B cells, luciferase luminescence (AID 489023)).

SMILES | IC50
Cc1nc2cc(-c3ccccc3)nn2c(C)c1CCC(=O)N1CCC2(CC1)OCCO2 | > 80 µM (inactive)
CCCC(=O)Nc1ccc(Sc2ccc([N+](=O)[O-])cc2)cc1 | 69.3 µM (inactive)
O=[N+]([O-])c1ccc(Sc2cc[n+]([O-])c3ccccc23)c([N+](=O)[O-])c1 | 0.59 µM
CC(C)(C)c1ccc(-n2ncc3c2CCCC3NC(=O)C2(C(N)=O)CC2)cc1 (configuration not stated) | > 80 µM (inactive)
CCN1C(=O)c2cccc3c(NC(=O)c4cccc(N5C(=O)CCC5=O)c4)ccc1c23 | > 80 µM (inactive)
O=C(NNC(=O)c1ccccc1O)c1ccc(Cl)c(S(=O)(=O)N2CCc3ccccc32)c1 | > 80 µM (inactive)
CCOC(=O)c1nn(-c2ccccc2)c(C#N)c1NC(=O)c1nn(CC)cc1Br | > 80 µM (inactive)
Cc1cc(C)cc(NC(=O)c2nnn(Cc3cc(C)ccc3C)c2N)c1 | > 80 µM (inactive)
CC1=CC(C)(C)Nc2ccc(OC(=O)C(C)N3C(=O)c4ccccc4C3=O)cc21 (configuration not stated) | 6.85 µM
N=c1ccn2c(n1)OC1C(O)C(CO)OC12 (configuration not stated) | < 0.16 µM
COc1ccccc1/C=C1\SC(=S)N(CCC(=O)NC2=NCCS2)C1=O | > 80 µM (inactive)
CCN1C(=O)c2cccc3c(S(=O)(=O)Nc4ccccn4)ccc1c23 | 25.2 µM (inactive)
CC1(C)CC2CC(C)(CN2S(=O)(=O)c2ccc(C(=O)Nc3ccc(S(=O)(=O)N4CCOCC4)cc3)cc2)C1 (configuration not stated) | > 80 µM (inactive)
O=C(CCCN1C(=O)S/C(=C/C=C/c2ccccc2)C1=O)Nc1ccc(C(=O)O)cc1 | > 80 µM (inactive)
COc1ccc(-n2ncc3c(N4CCC(C(N)=O)CC4)ncnc32)cc1 | > 80 µM (inactive)
O=C(NNC(=O)C12CC3CC(CC(C3)C1)C2)c1cccc(O)c1 | 16.5 µM

SMILES | IC50
CC1=CC(C)(C)Nc2ccc(OC(=O)CN3C(=O)c4ccccc4C3=O)cc21 | 4.73 µM
COc1ccc(/C=C2/SC(=S)N(CCCC(=O)Nc3ccc(O)cc3)C2=O)cc1OC | > 80 µM (inactive)
O=C(CCCc1nc(-c2ccccc2Cl)no1)NC1CCCC1 | 1.25 µM
CC(=O)c1cn(CCOc2cc(C)ccc2C)c2ccccc12 | > 80 µM (inactive)
COc1cc(OC)cc(-c2cc3nc(C)c(CCC(=O)NCc4ccccc4)c(C)n3n2)c1 | 4.7 µM
CC(C)CCNC(=O)CCCOc1cc(=O)n(C)c2ccccc12 | 64.3 µM (inactive)
Cc1cc(C)c(S(=O)(=O)NCc2ccncc2)c(C)c1 | > 80 µM (inactive)
O=C(CCCN1C(=O)/C(=C/c2ccccc2Cl)SC1=S)Nc1cccnc1 | 1.75 µM
CC(C)(C)c1ccc(-c2cc(N)n[nH]2)cc1 | 15.6 µM
CC(C)Cn1c([N+](=O)[O-])nc2c1c(=O)[nH]c(=O)n2C | 5.67 µM
COc1ccc(/C=C2\SC(=S)N(CCC(=O)Nc3cccc(O)c3)C2=O)cc1 | > 80 µM (inactive)
COc1ccc(OC)c(C2CC(=O)Nc3cc(OC)c(OC)c(OC)c32)c1 (configuration not stated) | > 80 µM (inactive)
CC(=C\c1ccccc1)/C=C1/SC(=O)N(CCCC(=O)Nc2ccc(C(=O)O)cc2)C1=O | 0.64 µM
c1ccc(CCNc2ncnc3ccccc23)cc1 | 60.1 µM (inactive)
Cc1ccc(C(=O)CSc2nnc(COc3ccccc3)o2)cc1 | > 80 µM (inactive)
Cc1ccc(Nc2nc(N/N=C\c3ccc4c(c3)OCO4)nc(N3CCOCC3)n2)cc1 | 3.11 µM
